For test [1], the system named is mouse thoracic aorta. Nature of the test: Endothelium-dependent vascular relaxation to ACh in aortic rings treated ex vivo (multiple-wire myograph). Particulars: aortic rings of HHcy/HG-Cbs−/+ mice preincubated with calpain inhibitor 20 μmol/L for 1 hour; p<0.05.
For test [2], the system named is aorta of HHcy and HHcy/HG Cbs−/+ mice. The experiment in a line: Endothelium-dependent vascular relaxation to ACh in thoracic aorta after in vivo calpain inhibitor administration. The arrangement: species or system mouse. The following applies: 2 mg/kg BW i.p. daily for 2 weeks, p<0.05. The procedure:
Images (Left Panel) and quantification (Right Panel) showing HHcy and HG activates calpain in mouse aortic endothelial cells (MAECs, P0) isolated from CBS^−/+ mice (FIG. 3A). Calpain activity was measured in intact MAECs by the fluorescent substrate t-BOC-Leu-Met-CMAC (T-BOC, 10 μmol/L, 30 min). In FIG. 3B, calpain inhibitors rescued endothelium-dependent vascular relaxation to ACh in the aorta of HHcy CBS^−/+ and HHcy/HG CBS^−/+ mice in the presence of calpain inhibitors in vivo (Left Panel) and ex vivo (Right Panel). Left Panel: Calpain inhibitor MDL28170 (MDL, Sigma #M6690) was administrated in vivo by i.p. injection (2 mg/kg/day, 2 weeks). Right Panel: The arterial rings were incubated with calpain inhibitors: MDL, calpeptin and N-Acetyl-Leu-Leu-Met-CHO (ALLM, 20 μmol/L for all, Enzo life Sciences, PI-100-0005) for 1 hr. […]
Endothelial function was assessed in the mouse thoracic aorta using a multiple-wire myograph (DMT 610) (Cheng et al., 2011, Blood 118:1998-2006; Cheng et al., 2007, Can J Physiol Pharmacol 85:404-412; Cheng et al., 2001, Hypertension 37:433-439). […]

With MDL28170, the “aortic endothelium-dependent vascular relaxation to ACh” value in test [1] is given as “markedly improved”. Besides, the “endothelial function (endothelium-dependent vascular relaxation to ACh)” value in test [2] is recorded as “largely improved”.

The values above are taken from patent US20160089391A1, “Molecular Targets for Cardiovascular Disease” (Temple University-of the Commonwealth System of Higher …, priority 2014, published 2016).
